Data published in the supplement of paper PMC10307832.

How the values were obtained:
Assay in all cases: relative viability (nuclei count vs DMSO), 5 days (fraction); higher = more cells survive
HCC-15 = tested on: HCC-15
How it was run: (§1)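 One day after seeding in 1536-well plates, lung cancer cell lines were dosed by pin tool. Dosing was either single-drug or a fixed anchor-drug dose plus five library-drug doses (not always all listed) in √10 steps. After 5 days, nuclei were stained in one fix-and-stain step and counted on 4× images, and relative viability is the nuclei count of treated wells over that of vehicle wells, given as the median of duplicate plates.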

NCI-H2126 = tested on: NCI-H2126
How it was run: as §1

COR-L 105 = tested on: COR-L 105
How it was run: as §1

NCI-H2009 = tested on: NCI-H2009
How it was run: as §1

NCI-H1993 = tested on: NCI-H1993
How it was run: as §1

PC-14 = tested on: PC-14
How it was run: as §1

SK-MES-1 = tested on: SK-MES-1
How it was run: as §1

HCC-44 = tested on: HCC-44
How it was run: as §1

CAL-12T = tested on: CAL-12T
How it was run: as §1

LXF-289 = tested on: LXF-289
How it was run: as §1

BEN = tested on: BEN
How it was run: as §1

HCC-827 = tested on: HCC-827
How it was run: as §1

PC-3 [JPC-3] = tested on: PC-3 [JPC-3]
How it was run: as §1

NCI-H2170 = tested on: NCI-H2170
How it was run: as §1

LU99A = tested on: LU99A
How it was run: as §1

NCI-H1563 = tested on: NCI-H1563
How it was run: as §1

LCLC-97TM1 = tested on: LCLC-97TM1
How it was run: as §1

HOP-62 = tested on: HOP-62
How it was run: as §1

HARA = tested on: HARA
How it was run: as §1

NCI-H727 = tested on: NCI-H727
How it was run: as §1

LC-2-ad = tested on: LC-2-ad
How it was run: as §1

NCI-H2087 = tested on: NCI-H2087
How it was run: as §1

HCC-366 = tested on: HCC-366
How it was run: as §1

COR-L23 = tested on: COR-L23
How it was run: as §1

SMILES: CCCCCCCCCCCC1=C(O)C(=O)C=C(O)C1=O [Embelin] + Cc1nc(NC(=O)N2CCC[C@H]2C(N)=O)sc1-c1ccnc(C(C)(C)C(F)(F)F)c1 [Alpelisib] (partner 2 µM)
- relative viability (HCC-15; first compound 0.08 µM): 0.882
- relative viability (HCC-15; first compound 0.8 µM): 0.864
- relative viability (HCC-15; first compound 2.53 µM): 0.957
- relative viability (HCC-15; first compound 8 µM): 0.995
- relative viability (NCI-H2126; first compound 0.08 µM): 0.792
- relative viability (NCI-H2126; first compound 0.8 µM): 0.743
- relative viability (NCI-H2126; first compound 2.53 µM): 0.799
- relative viability (NCI-H2126; first compound 8 µM): 0.748
- relative viability (COR-L 105; first compound 0.08 µM): 0.951
- relative viability (COR-L 105; first compound 0.8 µM): 1.15
- relative viability (COR-L 105; first compound 2.53 µM): 0.968
- relative viability (COR-L 105; first compound 8 µM): 1.31
- relative viability (NCI-H2009; first compound 0.08 µM): 1.26
- relative viability (NCI-H2009; first compound 0.8 µM): 1.27
- relative viability (NCI-H2009; first compound 2.53 µM): 1.18
- relative viability (NCI-H2009; first compound 8 µM): 1.16
- relative viability (NCI-H1993; first compound 0.08 µM): 0.753
- relative viability (NCI-H1993; first compound 0.8 µM): 0.755
- relative viability (NCI-H1993; first compound 2.53 µM): 0.649
- relative viability (NCI-H1993; first compound 8 µM): 0.658
- relative viability (PC-14; first compound 0.08 µM): 0.9
- relative viability (PC-14; first compound 0.8 µM): 0.973
- relative viability (PC-14; first compound 2.53 µM): 0.976
- relative viability (PC-14; first compound 8 µM): 0.959
- relative viability (SK-MES-1; first compound 0.08 µM): 0.902
- relative viability (SK-MES-1; first compound 0.8 µM): 1.15
- relative viability (SK-MES-1; first compound 2.53 µM): 0.96
- relative viability (SK-MES-1; first compound 8 µM): 0.876
- relative viability (HCC-44; first compound 0.08 µM): 0.781
- relative viability (HCC-44; first compound 0.8 µM): 0.767
- relative viability (HCC-44; first compound 2.53 µM): 0.895
- relative viability (HCC-44; first compound 8 µM): 1
- relative viability (CAL-12T; first compound 0.08 µM): 1.24
- relative viability (CAL-12T; first compound 0.8 µM): 1.49
- relative viability (CAL-12T; first compound 2.53 µM): 1.31
- relative viability (CAL-12T; first compound 8 µM): 1.33
- relative viability (LXF-289; first compound 0.08 µM): 1.03
- relative viability (LXF-289; first compound 0.8 µM): 1.07
- relative viability (LXF-289; first compound 2.53 µM): 1.08
- relative viability (LXF-289; first compound 8 µM): 1.13
- relative viability (BEN; first compound 0.08 µM): 1.09
- relative viability (BEN; first compound 0.8 µM): 1.31
- relative viability (BEN; first compound 2.53 µM): 1.3
- relative viability (BEN; first compound 8 µM): 1.01
- relative viability (HCC-827; first compound 0.08 µM): 1.03
- relative viability (HCC-827; first compound 0.8 µM): 0.929
- relative viability (HCC-827; first compound 2.53 µM): 1.07
- relative viability (HCC-827; first compound 8 µM): 0.961
- relative viability (PC-3 [JPC-3]; first compound 0.08 µM): 1.03
- relative viability (PC-3 [JPC-3]; first compound 0.8 µM): 0.988
- relative viability (PC-3 [JPC-3]; first compound 2.53 µM): 1.08
- relative viability (PC-3 [JPC-3]; first compound 8 µM): 1.05
- relative viability (NCI-H2170; first compound 0.08 µM): 0.856
- relative viability (NCI-H2170; first compound 0.8 µM): 0.853
- relative viability (NCI-H2170; first compound 2.53 µM): 0.92
- relative viability (NCI-H2170; first compound 8 µM): 0.777
- relative viability (LU99A; first compound 0.08 µM): 0.558
- relative viability (LU99A; first compound 0.8 µM): 0.533
- relative viability (LU99A; first compound 2.53 µM): 0.561
- relative viability (LU99A; first compound 8 µM): 0.496
- relative viability (NCI-H1563; first compound 0.08 µM): 0.845
- relative viability (NCI-H1563; first compound 0.8 µM): 0.978
- relative viability (NCI-H1563; first compound 2.53 µM): 0.856
- relative viability (NCI-H1563; first compound 8 µM): 0.913
- relative viability (LCLC-97TM1; first compound 0.8 µM): 0.291
- relative viability (LCLC-97TM1; first compound 2.53 µM): 0.283
- relative viability (LCLC-97TM1; first compound 8 µM): 0.223
- relative viability (HOP-62; first compound 0.08 µM): 1.04
- relative viability (HOP-62; first compound 0.8 µM): 0.918
- relative viability (HOP-62; first compound 2.53 µM): 1.41
- relative viability (HOP-62; first compound 8 µM): 0.796
- relative viability (HARA; first compound 0.08 µM): 0.848
- relative viability (HARA; first compound 0.8 µM): 0.887
- relative viability (HARA; first compound 2.53 µM): 0.989
- relative viability (HARA; first compound 8 µM): 0.702
- relative viability (NCI-H727; first compound 0.08 µM): 0.629
- relative viability (NCI-H727; first compound 0.8 µM): 0.57
- relative viability (NCI-H727; first compound 2.53 µM): 0.578
- relative viability (NCI-H727; first compound 8 µM): 0.511
- relative viability (LC-2-ad; first compound 0.08 µM): 0.891
- relative viability (LC-2-ad; first compound 0.8 µM): 0.913
- relative viability (LC-2-ad; first compound 2.53 µM): 0.716
- relative viability (LC-2-ad; first compound 8 µM): 0.892
- relative viability (NCI-H2087; first compound 0.08 µM): 0.988
- relative viability (NCI-H2087; first compound 0.8 µM): 1.13
- relative viability (NCI-H2087; first compound 2.53 µM): 1.03
- relative viability (NCI-H2087; first compound 8 µM): 1.08
- relative viability (HCC-366; first compound 0.08 µM): 0.411
- relative viability (HCC-366; first compound 0.8 µM): 0.418
- relative viability (HCC-366; first compound 2.53 µM): 0.412
- relative viability (HCC-366; first compound 8 µM): 0.427
- relative viability (COR-L23; first compound 0.08 µM): 0.872
- relative viability (COR-L23; first compound 0.8 µM): 1.11
- relative viability (COR-L23; first compound 2.53 µM): 0.874
- relative viability (COR-L23; first compound 8 µM): 0.777
